Test results from patent US20260285850A1, “SUBSTITUTED OXAZOLIDINONES AND IMIDAZOLINONES AS HERBICIDES” (FMC CORPORATION, priority 2023, published 2026).

How the values were obtained:
Format in all cases: in vivo
[1] = test system: corn (Zea mays); experiment: Test A postemergence application, visual injury rating 0-100
Method in brief: (§1)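 Visual injury ratings (0, no effect; 100, complete control) were assigned relative to untreated plants 10 days after treatment. Test chemicals, formulated with a surfactant-containing non-phytotoxic solvent, were applied in loam-sand soil either as a directed soil spray before emergence or to emerged plants, and plants were kept in a greenhouse.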

[2] = test system: barnyardgrass (Echinochloa crus-galli); experiment: as above
Method in brief: as §1

[3] = test system: galium (catchweed bedstraw, Galium aparine); experiment: as above
Method in brief: as §1

[4] = test system: ryegrass, Italian (italian ryegrass, Lolium multiflorum); experiment: as above
Method in brief: as §1

[5] = test system: soybean (Glycine max); experiment: as above
Method in brief: as §1

[6] = test system: palmer (palmer amaranth, palmer pigweed, Amaranthus palmeri); experiment: as above
Method in brief: as §1

[7] = test system: wheat (Triticum aestivum); experiment: as above
Method in brief: as §1

[8] = test system: oat, wild (wild oat, Avena fatua); experiment: as above
Method in brief: as §1

[9] = test system: ragweed (common ragweed, Ambrosia artemisiifolia); experiment: as above
Method in brief: as §1

[10] = test system: blackgrass (Alopecurus myosuroides); experiment: as above
Method in brief: as §1

[11] = test system: horseweed (Erigeron canadensis); experiment: as above
Method in brief: as §1

[12] = test system: green foxtail (Setaria viridis); experiment: as above
Method in brief: as §1

[13] = test system: kochia (Bassia scoparia); experiment: as above
Method in brief: as §1

[14] = test system: corn (Zea mays); experiment: Test A preemergence soil spray, visual injury rating 0-100; details: 10 days
Method in brief: as §1

[15] = test system: barnyardgrass (Echinochloa crus-galli); experiment: as above; details: 10 days
Method in brief: as §1

[16] = test system: ryegrass, Italian (italian ryegrass, Lolium multiflorum); experiment: as above; details: 10 days
Method in brief: as §1

[17] = test system: soybean (Glycine max); experiment: as above; details: 10 days
Method in brief: as §1

[18] = test system: palmer (palmer amaranth, palmer pigweed, Amaranthus palmeri); experiment: as above; details: 10 days
Method in brief: as §1

[19] = test system: wheat (Triticum aestivum); experiment: as above; details: 10 days
Method in brief: as §1

[20] = test system: oat, wild (wild oat, Avena fatua); experiment: as above; details: 10 days
Method in brief: as §1

[21] = test system: ragweed (common ragweed, Ambrosia artemisiifolia); experiment: as above; details: 10 days
Method in brief: as §1

[22] = test system: blackgrass (Alopecurus myosuroides); experiment: as above; details: 10 days
Method in brief: as §1

[23] = test system: green foxtail (Setaria viridis); experiment: as above; details: 10 days
Method in brief: as §1

[24] = test system: kochia (Bassia scoparia); experiment: as above; details: 10 days
Method in brief: as §1

[25] = test system: rice (Oryza sativa); experiment: Test B flooded paddy test, visual plant response rating 0-100; details: 250 g ai/ha, Flood, applied to paddy water, evaluated after 13 days
Method in brief: (§2)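 2-leaf plants; flood 3 cm over soil; compound dosed into paddy water; depth kept constant; greenhouse 13 d; visual scoring vs controls. Dash = no result.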

[26] = test system: ducksalad (Heteranthera limosa); experiment: as above; details: 250 g ai/ha, Flood, applied to paddy water, evaluated after 13 days
Method in brief: as §2

[27] = test system: sedge, umbrella (small-flower umbrella sedge, Cyperus difformis); experiment: as above; details: 250 g ai/ha, Flood, applied to paddy water, evaluated after 13 days
Method in brief: as §2

[28] = test system: barnyardgrass (Echinochloa crusgalli); experiment: as above; details: 250 g ai/ha, Flood, applied to paddy water, evaluated after 13 days
Method in brief: as §2

[29] = 62 g ai/ha, postemergence, 10 days, 0 = no effect, 100 = complete control
[30] = Postemergence, 16 g ai/ha, greenhouse 10 days, 0 no effect, 100 complete control
[31] = 62 g ai/ha, 0 = no effect, 100 = complete control

CC(C)OC(=O)C1=CCC(NC(=O)C2(C)CN(c3cc(F)cc(F)c3)C(=O)O2)C1 (stereo not shown) [Compound 99]
0: Corn plant response rating (0-100) [1, 29] | Corn plant response rating (0 to 100 scale) [1, 30] | Barnyardgrass plant response rating (0-100) [2, 29] | Barnyardgrass plant response rating (0 to 100 scale) [2, 30] | Ryegrass, Italian plant response rating (0-100) [4, 29] | Ryegrass, Italian plant response rating (0 to 100 scale) [4, 30] | Soybean plant response rating (0 to 100 scale) [5, 30] | Pigweed, Palmer plant response rating (0-100) [6, 29] | Pigweed, Palmer plant response rating (0 to 100 scale) [6, 30] | Wheat plant response rating (0 to 100 scale) [7, 30] | Oat, Wild plant response rating (0-100) [8, 29] | Oat, Wild plant response rating (0 to 100 scale) [8, 30] | Ragweed plant response rating (0-100) [9, 29] | Ragweed plant response rating (0 to 100 scale) [9, 30] | Blackgrass plant response rating (0-100) [10, 29] | Blackgrass plant response rating (0 to 100 scale) [10, 30] | Horseweed plant response rating (0-100) [11, 29] | Horseweed plant response rating (0 to 100 scale) [11, 30] | Foxtail, Green plant response rating (0-100) [12, 29] | Foxtail, Green plant response rating (0 to 100 scale) [12, 30] | Kochia plant response rating (0-100) [13, 29] | Kochia plant response rating (0 to 100 scale) [13, 30] | Corn plant response rating ([14]; 16 g ai/ha, 0 to 100 scale) | Corn plant response rating (0-100) [14, 31] | Barnyardgrass plant response rating ([15]; 16 g ai/ha, 0 to 100 scale) | Barnyardgrass plant response rating (0-100) [15, 31] | Ryegrass, Italian plant response rating ([16]; 16 g ai/ha, 0 to 100 scale) | Ryegrass, Italian plant response rating (0-100) [16, 31] | Soybean plant response rating ([17]; 16 g ai/ha, 0 to 100 scale) | Soybean plant response rating (0-100) [17, 31] | Pigweed, Palmer plant response rating ([18]; 16 g ai/ha, 0 to 100 scale) | Pigweed, Palmer plant response rating (0-100) [18, 31] | Wheat plant response rating ([19]; 16 g ai/ha, 0 to 100 scale) | Wheat plant response rating (0-100) [19, 31] | Ragweed plant response rating ([21]; 16 g ai/ha, 0 to 100 scale) | Ragweed plant response rating (0-100) [21, 31] | Blackgrass plant response rating ([22]; 16 g ai/ha, 0 to 100 scale) | Blackgrass plant response rating (0-100) [22, 31] | Foxtail, Green plant response rating ([23]; 16 g ai/ha, 0 to 100 scale) | Kochia plant response rating ([24]; 16 g ai/ha, 0 to 100 scale) | Kochia plant response rating (0-100) [24, 31] | Plant response rating, Rice (0 to 100 scale, 0 is no effect and 100 is complete control) [25] | Plant response rating, Ducksalad (0 to 100 scale, 0 is no effect and 100 is complete control) [26] | Plant response rating, Sedge, Umbrella (0 to 100 scale, 0 is no effect and 100 is complete control) [27] | Plant response rating, Barnyardgrass (0 to 100 scale, 0 is no effect and 100 is complete control) [28]
10: Wheat plant response rating (0-100) [7, 29]
50: Oat, Wild plant response rating (0-100) [20, 31]
20: Galium plant response rating (0-100) [3, 29] | Galium plant response rating (0 to 100 scale) [3, 30] | Soybean plant response rating (0-100) [5, 29] | Oat, Wild plant response rating ([20]; 16 g ai/ha, 0 to 100 scale)
40: Foxtail, Green plant response rating (0-100) [23, 31]
